Assay results taken from US6933261B2, “2,4,5-Trisubstituted phenylketoenols” (Bayer Aktiengesellschaft, priority 1995, dated 2005).

Columns and labels:
Format in all cases: in vivo
[1] = system: mustard beetle larvae (Phaedon cochleariae); experiment: Phaedon larvae test; conditions: after 7 days, active concentration 0.1%, dipped cabbage leaves
Description: (§1) Phaedon Larvae Test • Solvent: 7 parts by weight of dimethylformamide • Emulsifier: 1 part by weight of alkylaryl polyglycol ether To produce a suitable preparation of active compound, 1 part by weight of active compound is mixed with the stated amount of solvent and the stated amount of emulsifier, and the concentrate is diluted with water to the desired concentration. Cabbage leaves (Brassica oleracea) are treated by being dipped into the preparation of the active compound of the desired concentration and are infested with mustard beetle larvae (Phaedon cochleariae), as long as the leaves are still moist. After the specified periods of time, the destruction in % is determined. 100% means that all the beetle larvae have been killed; 0% means that none of the beetle larvae have been killed.

[2] = system: caterpillars of the diamond-back moth (Plutella maculipennis); experiment: Plutella test; conditions: after 7 days, active compound concentration 0.1%, dipped cabbage leaves
Description: as §1, with “Plutella Test •” for “Phaedon Larvae Test •”, “preparation of active compound” for “preparation of the active compound”, “infested with caterpillars of the diamond-back moth (Plutella maculipennis) while the leaves” for “infested with mustard beetle larvae (Phaedon cochleariae), as long as the leaves”, “all the caterpillars have been” for “all the beetle larvae have been”, “of the caterpillars have been” for “of the beetle larvae have been”

[3] = system: caterpillars of the owlet moth (Spodoptera frugiperda); experiment: Spodoptera test; conditions: after 7 days, active compound concentration 0.1%, dipped cabbage leaves
Description: as §1, with “Spodoptera Test •” for “Phaedon Larvae Test •”, “preparation of active compound” for “preparation of the active compound”, “infested with caterpillars of the owlet moth (Spodoptera frugiperda) while the leaves” for “infested with mustard beetle larvae (Phaedon cochleariae), as long as the leaves”, “all the caterpillars have been” for “all the beetle larvae have been”, “of the caterpillars have been” for “of the beetle larvae have been”

[4] = system: rice green leafhopper (Nephotettix cincticeps); experiment: Nephotettix test; conditions: after 6 days, active compound concentration 0.1%, dipped rice seedlings
Description: Nephotettix Test • Solvent: 7 parts by weight of dimethylformamide • Emulsifier: 1 part by weight of alkylaryl polyglycol ether To produce a suitable preparation of active compound, 1 part by weight of active compound is mixed with the stated amount of solvent and the stated amount of emulsifier, and the concentrate is diluted with water to the desired concentration. Rice seedlings (Oryza sativa) are treated by being dipped into the preparation of active compound of the desired concentration and are infested with caterpillars of the rice green leafhopper (Nephotettix cincticeps) while the seedlings are still moist. After the specified periods of time, the destruction in % is determined. 100% means that all the caterpillars have been killed; 0% means that none of the caterpillars have been killed.

[5] = system: peach aphid (Myzus persicae); experiment: Myzus test; conditions: after 6 days, active compound concentration 0.1%, dipped cabbage leaves
Description: as §1, with “Myzus” for “Phaedon Larvae”, “oleracea) which are heavily infested by the peach aphid (Myzus persicae)” for “oleracea)”, “concentration.” for “concentration and are infested with mustard beetle larvae (Phaedon cochleariae), as long as the leaves are still moist.”, “caterpillars” for “beetle larvae”

[6] = system: Boophilus microplus resistant/SP-resistant Parkhurst strain, adult satiated females; experiment: Test with Boophilus microplus resistant/SP-resistant Parkhurst strain; conditions: 20 μg per animal, injected into the abdomen
Description: Test with Boophilus microplus Resistant/SP-resistant Parkhurst Strain
• Test animals: Adult satiated females • Solvent: Dimethyl sulphoxide
20 mg of active compound are dissolved in 1 ml of dimethyl sulphoxide, and lower concentrations are prepared by dilution in the same solvent.
The test is carried out as a 5-fold determination. 1 μl of the solutions is injected into the abdomen and the animals are transferred to dishes and kept in a climatically controlled room. The action is determined via the inhibition of oviposition. 100% means that no tick has laid.

Alopecurus myosuroids = experiment: Pre-emergence test; conditions: 500 g/ha, rated after three weeks vs untreated control
Description: (§2) • Solvent: 5 parts by weight of acetone • Emulsifier: 1 part by weight of alkylaryl polyglycol ether
(§3) To produce a suitable preparation of active compound, 1 part by weight of active compound is mixed with the stated amount of solvent, the stated amount of emulsifier is added and the concentrate is diluted with water to the desired concentration.
(§4) Seeds of the test plants are sown in normal soil and, after 24 hours, watered with the preparation of the active compound. It is expedient to keep constant the amount of water per unit area. The concentration of the active compound in the preparation is of no importance, only the amount of active compound applied per unit area being decisive.
(§5) After three weeks, the degree of damage to the plants is rated in % damage in comparison to the development of the untreated control.
(§6) The figures denote: • 0%=no action (like untreated control) • 100%=total destruction

Avena fatua = experiment: Pre-emergence test; conditions: 500 g/ha, rated after three weeks vs untreated control
Description: as §2, §3, §4, §5, §6

Setaria viridis = experiment: Pre-emergence test; conditions: 500 g/ha, rated after three weeks vs untreated control
Description: as §2, §3, §4, §5, §6

Beta vulgaris = experiment: Pre-emergence test (crop tolerance); conditions: 500 g/ha
Description: as §2, §3, §4, §5, §6

[7] = system: All larval stages of Lucilia cuprina (OP-resistant); experiment: Test with fly larvae/development-inhibiting action; conditions: active compound concentration 1000 ppm, read-out: action (larvicidal / development-inhibiting)
Description: Test with Fly Larvae/Development-Inhibiting Action
• Test animals: All larval stages of Lucilia cuprina (OP-resistant) [pupae and adults (without contact with the active compound)] • Solvent: 35 parts by weight of ethylene glycol monomethyl ether 35 parts by weight of nonylphenol polyglycol ether
To produce a suitable formulation, 3 parts by weight of active compound are mixed with seven parts of the abovementioned solvent/emulsifier mixture and the emulsion concentrate thus obtained is diluted with water to the particular desired concentration.
30 to 50 larvae per concentration are introduced onto horse-meat (1 cm^3), in glass tubes, onto which 500 μl of the dilution to be tested are pipetted. The glass tubes are placed in plastic beakers, the base of which is covered with beach sand, and are stored in a climatically controlled room (26° C.±1.5° C., 70% relative humidity±10%). The action is checked after 24 hours and 48 hours (larvicidal action). After emergence of the larvae (about 72 hours), the glass tubes are removed and perforated plastic lids are placed on the beakers. After 1½ times the development period (hatching of the control flies), the flies which have hatched and the pupae/pupae cases are counted. […]

Row | SMILES | destruction [2] | destruction [3] | destruction [4] | destruction [5] | other results
1 | Cc1cc(C)c(-c2c(O)c(C)c(-c3ccccn3)oc2=O)cc1C [Example I-4-a-4] | 100% | 100% | 100% | 100% | destruction [1]: 100%
2 | CC(=O)OC1=C(c2cc(C)c(C)cc2C)C(=O)NC12CCC(C)CC2 (centres unmarked) [Example I-1-b-1] |  |  | 100% |  | 
3 | Cc1cc(C)c(C2=C(O)C3(CCC(C)CC3)NC2=O)cc1C (centres unmarked) [Example I-1-a-1] | 100% | 100% | 100% |  | 
4 | COC1CCC2(CC1)OC(=O)C(c1cc(C)c(C)cc1C)=C2O (centres unmarked) [Example I-2-a-3] |  |  | 100% |  | 
5 | COC1CCC2(CC1)OC(=O)C(c1cc(C)c(C)cc1C)=C2OC(=O)C(C)C (centres unmarked) [Example I-2-b-4] |  |  | 100% | 100% | 
6 | COC1CCC2(CC1)NC(=O)C(c1cc(C)c(C)cc1C)=C2OC(=O)OCC(C)C (single isomer, unassigned) [Example I-1-c-3] |  |  | 100% |  | 
7 | COC1CCC2(CC1)NC(=O)C(c1cc(C)c(C)cc1C)=C2OC(=O)OCC(C)C (single isomer, unassigned) [Example I-1-c-2] |  |  | 100% | 100% | 
8 | CC(=O)Oc1c2c(oc(=O)c1-c1cc(C)c(C)cc1C)C(C)(C)OC2(C)C [Example I-4-b-1] | 100% | 100% |  |  | destruction [1]: 100%; action (inhibition of oviposition) [6]: 100%
9 | CCOC(=O)OC1=C(c2cc(C)c(C)cc2C)C(=O)NC12CCC(C)CC2 (centres unmarked) [Example I-1-c-1] | 100% |  | 100% |  | 
10 | Cc1cc(C)c(C2=C(OC(=O)C(C)C)C3(CCC(C)CC3)NC2=O)cc1C (single isomer, unassigned) [Example I-1-b-2] | 100% | 100% | 100% | 100% | 
11 | COC1CCC2(CC1)NC(=O)C(c1cc(C)c(C)cc1C)=C2OC(=O)C(C)C (single isomer, unassigned) [Example I-1-b-3] |  |  | 100% | 100% | 
12 | Cc1cc(C)c(-c2c(O)c(C)c(-c3ccc(F)cc3)oc2=O)cc1C [Example I-4-a-3] | 100% | 100% | 100% |  | damage (Alopecurus myosuroids): 90%; damage (Avena fatua): 96%; damage (Setaria viridis): 95%; tolerance by crop plant (Beta vulgaris): good tolerance
13 | Cc1cc(C)c(C2=C(O)C3(CCC(C)CC3)OC2=O)cc1C (centres unmarked) [Example I-2-a-2] |  |  | 100% |  | 
14 | COC1CCC2(CC1)OC(=O)C(c1cc(C)c(C)cc1C)=C2OC(=O)C(C)(C)C (centres unmarked) [Example I-2-b-5] |  |  | 100% |  | 
15 | Cc1cc(C)c(-c2c(O)c3c(oc2=O)C(C)(C)OC3(C)C)cc1C [Example I-4-a-1] | 100% | 100% |  |  | inhibition at 1000 ppm [7]: 100%; action (inhibition of oviposition) [6]: 100%
16 | Cc1cc(C)c(C2=C(O)C3(CCCCC3)OC2=O)cc1C [Example I-2-a-1] |  |  |  | 100% | 
